Assay results taken from patent US20250057963A1, “DISCOVERY OF PIPERLONGUMINE AS A NOVEL E3 LIGASE LIGAND” (University of Florida Research Foundation, Incorporated, priority 2021, published 2025).
“Also recorded” adds a separate entry of the source.

Legend:
[1] = tested on: PL-binding proteins in MOLT4 cells; assay: Competitive ABPP with PL-Alkyne probe and LC-MS/MS in MOLT4 cells; parameters: species or system Human
Method: Competitive ABPP. MOLT4 cells (2×10^7) were pre-treated with DMSO or 20 µM PL for 4 h and then treated with 1 μM PL-Alkyne probe (Zhang et al., 2018b) for an additional 4 h. The cells were then harvested and lysed in 1× Dulbecco's phosphate-buffered saline (PBS) buffer (Cat. #D1408, Sigma-Aldrich) containing protease and phosphatase inhibitors. CuAAC reaction was performed as previously described (Spradlin et al., 2019) and biotinylated proteins were enriched using Pierce™ streptavidin agarose beads (Cat. #20353, ThermoFisher).
Sample preparation and LC-MS/MS analysis. Protein samples were reduced, alkylated, and digested on-bead using filter-aided sample preparation (Wisniewski et al., 2009) with sequencing grade modified porcine trypsin (Cat. No. V5111, Promega). […]
The MS/MS was acquired according to standard conditions established in the lab. […] The scan sequence of the mass spectrometer was based on the original TopTen™ method; the analysis was programmed for a full scan recorded between 375-1575 Da at 60,000 resolution, and a MS/MS scan at resolution 15,000 to generate product ion spectra to determine amino acid sequence in consecutive instrument scans of the fifteen most abundant peaks in the spectrum. […]
Data processing and analysis. All MS/MS samples were analyzed using Sequest (Thermo Fisher Scientific, San Jose, CA, USA; version IseNode in Proteome Discoverer 2.4.0.305). […]

[2] = tested on: proteins in senescent WI38 cells; details: cited from earlier work
CDK9 = CDK9 (Homo sapiens, UniProt P50750); assay: CDK9 degradation in MOLT4 cells (immunoblot); format: cell-based; parameters: endogenous in cells; host or cells: MOLT4, 293T, K562, NCI-H1299, LNCaP; details: immunoblot
Method: All the cell lines were maintained in a humidified incubator at 37° C. and 5% CO2.
Data analysis was performed using GraphPad Prism software (version 9) unless indicated otherwise. All graphs presented represent the mean±standard deviation of the mean (SD) unless otherwise stated.

[3] = tested on: LNCaP prostate cancer cells and H1299 lung cancer cells; assay: Cell killing (MTS) with or without KEAP1 siRNA knockdown; format: cell-based, Human; details: KEAP1 siRNA vs control siRNA 48 h; compound 0.1 mM (LNCaP) or 0.3 mM (H1299) for 24 h
Method: FIGS. 19A to 19B show percentages of cell killing in LNCaP (FIG. 19A) and H1299 (FIG. 19B) cells with or without KEAP1 knockdown. LNCaP and H1299 cells were treated with control siRNA or siRNAs targeting KEAP1 for 48 h and then reseeded and treated with indicated compound (0.1 mM for LNCaP cells and 0.3 mM for H1299 cells) for 24 h. The cell viability was then determined by MTS assay. The data are presented as mean±SD from three replicate cell cultures in a representative experiment. Data are representative of two independent experiments. Statistical significance was calculated with unpaired two-tailed Student's t-tests. **P<0.01; ***P<0.001; NS: not significant.
Viability (MTS) assays in various cancer cells followed the methods described in our previous report (Khan et al., 2019). The data were expressed as average % cell viability and fitted in non-linear regression curves using GraphPad Prism 9 (GraphPad Software, La Jolla, CA, USA).

[4] = molecular target: T1, CDK9: 955: KEAP1 ternary complex (Homo sapiens, UniProt P50750+Q14145); assay: NanoBRET ternary complex formation assay in live 293T cells; format: cell-based; details: HiBit-CDK9 and Halo-KEAP1 in 293T cells, 6 h
T1 construct: expressed in transfected cells; host or cells: 293T
Description: CMV HiBit (Cat. No. CS1956B03) was purchased from Promega. Plasmid HaloTag-KEAP1 (a gift from Yimon Aye, plasmid #58240) was purchased from Addgene. HiBit-CDK9 were constructed through the Gibson assembly method. The primer pair (5′-[…]atggcaaagcagtacgactcggtggag-3′ and 5′-[…]gaagacgcgctcaaactccgtctggt-3′) and the template HA-CDK9 (a gift from Andrew Rice, plasmid #28102) was used to clone the CDK9 fragment. The primer pair (5′-accagacggagtttgagcgcgtcttc[…]-3′ and 5′-ctccaccgagtcgtactgcttcgccat[…]-3′) and pBit3.1—N(Cat. No. N2361, Promega) were used to clone the vector-containing fragment. The PCR fragments were assembled using NEBuilder® HiFi DNAAssembly Master Mix. DNA sequences in all these plasmids were authenticated by automatic sequencing. […] After treatment, NanoBRET Nano-Glo Substrate (Cat. No. N1662, Promega) was added into the medium, and the contents were mixed by shaking the plate for 30 s before measuring donor and acceptor signals on Biotek plate reader. Dual-filtered luminescence was collected with a 450/50 nm bandpass filter (donor, NanoBiT-CDK9 protein) and a 610-nm longpass filter (acceptor, HaloTag NanoBRET ligand) using an integration time of 0.5 s. mBRET ratios were calculated following the NanoBRET™ Nano-Glo® Detection System (Cat. No. N1662, Promega).

EML4-ALK = molecular target: T2, EML4-ALK (Homo sapiens, UniProt Q9UM73); assay: EML4-ALK degradation in NCI-H2228 cells (immunoblot); format: cell-based
T2 construct: endogenous in cells; host or cells: NCI-H2228; the other entry of the earlier key: EML4 (Q9HC35, Echinoderm microtubule-associated protein-like 4)
Method: Human T-ALL MOLT4 (Cat. No. CRL-1582), K562 (Cat. No. CCL-243), NCI-H1299 (Cat. No. CRL-5803), NCI-H2228 (Cat. No. CRL-5935), LNCaP (Cat. No. CRL-1740), 22RV1 (Cat. No. CRL-2505), PC3 (Cat. No. CRL-1435), DU145 (Cat. No. HTB-81), and epithelial kidney HEK 293T (293T, Cat. No. ACS-4500) cell lines were recently purchased from American Type Culture Collection (ATCC, Manassas, VA, USA). MOLT4, K562, NCI—H-1299, NCI-H2228, LNCap, and 22RV 1 cell lines were cultured in RPMI 1640 medium (Cat No. 22400-089, Thermo Fisher Scientific, Waltham, MA, USA) supplemented with 10% (v/v) heat-inactivated fetal bovine serum (FBS, Cat. No. S11150H, Atlanta Biologicals, Flowery Branch, GA, USA), 100 U/mL penicillin and 100 pig/mL streptomycin (Pen-Strep, Cat. No. 15140122, Thermo Fisher Scientific). PC3 cells were cultured in complete F—12K medium (Kaighn's modification of Ham's F-12 medium, Cat. No. 30-2004, ATCC) supplemented with 10% (v/v) heat-inactivated FBS, 100 U/mL penicillin, and 100 μg/mL streptomycin. DU145 cells were cultured in complete Eagle's Minimum Essential Medium (EMEM, Cat. No. 30-2003, ATCC) supplemented with 10% (v/v) heat-inactivated FBS, 100 U/mL penicillin, and 100 μg/mL streptomycin. […]
Immunoblot data were quantified using the ImageJ (v 1.53a) software from NIH. […]

T2 sequence (Q9UM73 with tags, fused parts or gaps): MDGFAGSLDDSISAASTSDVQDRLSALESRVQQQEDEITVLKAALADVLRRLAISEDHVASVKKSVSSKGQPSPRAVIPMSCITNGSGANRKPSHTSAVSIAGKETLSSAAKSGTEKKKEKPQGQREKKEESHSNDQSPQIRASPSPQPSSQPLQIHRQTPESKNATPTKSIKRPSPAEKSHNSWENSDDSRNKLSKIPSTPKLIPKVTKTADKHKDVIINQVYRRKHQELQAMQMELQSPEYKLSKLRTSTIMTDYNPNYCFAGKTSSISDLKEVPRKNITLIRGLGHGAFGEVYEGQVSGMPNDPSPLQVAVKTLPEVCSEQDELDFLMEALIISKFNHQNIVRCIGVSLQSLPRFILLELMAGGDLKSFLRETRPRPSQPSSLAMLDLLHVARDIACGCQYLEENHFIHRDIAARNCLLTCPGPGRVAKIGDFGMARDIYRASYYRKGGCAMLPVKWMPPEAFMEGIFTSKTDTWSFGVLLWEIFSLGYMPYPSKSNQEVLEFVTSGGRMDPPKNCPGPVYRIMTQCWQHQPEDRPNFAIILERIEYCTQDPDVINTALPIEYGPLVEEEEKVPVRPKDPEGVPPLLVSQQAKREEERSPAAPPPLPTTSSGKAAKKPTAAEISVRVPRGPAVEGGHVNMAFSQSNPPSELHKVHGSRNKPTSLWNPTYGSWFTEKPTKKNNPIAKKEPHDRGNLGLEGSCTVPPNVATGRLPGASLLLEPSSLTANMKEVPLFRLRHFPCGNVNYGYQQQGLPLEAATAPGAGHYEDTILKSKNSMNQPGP
Chain of CDK9 (P50750 whole entry): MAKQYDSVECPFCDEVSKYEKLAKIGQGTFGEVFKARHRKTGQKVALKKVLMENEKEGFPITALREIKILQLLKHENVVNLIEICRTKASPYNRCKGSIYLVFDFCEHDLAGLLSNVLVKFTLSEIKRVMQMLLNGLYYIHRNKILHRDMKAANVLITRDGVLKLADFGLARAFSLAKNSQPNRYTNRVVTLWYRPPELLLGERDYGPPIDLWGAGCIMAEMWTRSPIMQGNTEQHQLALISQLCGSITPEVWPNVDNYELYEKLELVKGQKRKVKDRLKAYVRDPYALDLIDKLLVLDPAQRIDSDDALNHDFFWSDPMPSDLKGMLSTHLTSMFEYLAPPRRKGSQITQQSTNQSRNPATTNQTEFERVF
T1 sequence (P50750 whole entry): as above
T1 sequence (Q14145 whole entry): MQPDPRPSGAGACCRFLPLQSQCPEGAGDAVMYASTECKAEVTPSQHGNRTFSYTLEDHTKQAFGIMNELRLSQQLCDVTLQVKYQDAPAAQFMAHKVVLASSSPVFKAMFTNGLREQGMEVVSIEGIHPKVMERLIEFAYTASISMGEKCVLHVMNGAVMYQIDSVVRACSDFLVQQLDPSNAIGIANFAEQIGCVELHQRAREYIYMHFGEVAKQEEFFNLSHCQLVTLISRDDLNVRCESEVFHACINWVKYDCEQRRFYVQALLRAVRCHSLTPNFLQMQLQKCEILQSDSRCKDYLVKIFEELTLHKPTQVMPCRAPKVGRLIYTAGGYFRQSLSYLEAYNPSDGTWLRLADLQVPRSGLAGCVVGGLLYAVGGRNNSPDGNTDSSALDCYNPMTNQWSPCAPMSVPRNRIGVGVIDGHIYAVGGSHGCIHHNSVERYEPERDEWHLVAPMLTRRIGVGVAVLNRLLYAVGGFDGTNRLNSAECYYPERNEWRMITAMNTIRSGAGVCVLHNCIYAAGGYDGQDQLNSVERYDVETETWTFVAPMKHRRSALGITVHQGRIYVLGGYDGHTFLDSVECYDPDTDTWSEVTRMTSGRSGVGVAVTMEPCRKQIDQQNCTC

For `COc1cc(/C=C/C(=O)N2CCC=CC2=O)cc(OC)c1OC` [PL, Piperlongumine], the “number of PL-binding E3 ligases” value [1] is listed as 9, the “number of PL-binding proteins” value [1] is listed as “about 300” and the “number of PL-binding proteins” value ([2]; senescent WI38 fibroblasts, previous study) is listed as 172. For the same molecule, the “number of PL-binding E3 ligases” value ([2]; senescent cells, previous study (Zhang et al., 2018b)) was 8 and the CDK9 degradation (CDK9) was “only 955, degraded CDK9; also recorded: none of these treatments degraded CDK9”.
With `COc1cc(CCC(=O)N2CCCCC2=O)cc(OC)c1OCCN1CCN(C(=O)CN2CCC(C(=O)Nc3ncc(SCc4ncc(C(C)(C)C)o4)s3)CC2)CC1` [compound 336, N-(5-(((5-(tert-butyl)oxazol-2-yl)methyl)thio)thiazol-2-yl)-1-(2-(4-(2-(2,6-dimethoxy-4-(3-oxo-3-(2-oxopiperidin-1-yl)propyl)phenoxy)ethyl)piperazin-1-yl)-2-oxoethyl)piperidine-4-carboxamide] the “effect of KEAP1 knockdown on cytotoxicity of the compound” value [3] was “no significant effect”, the “formation of the CDK9:KEAP1 ternary complex” value [4] was “did not; also recorded: negligible” and the CDK9 degradation (CDK9) was “could not induce CDK9 degradation; also recorded: but not 336, can induce CDK9 degradation; also recorded: cannot degrade CDK9”.
With `COc1cc(/C=C/C(=O)N2CCC=CC2=O)cc(OC)c1OCC(=O)N1CCC(c2cc(OC(C)C)c(Nc3ncc(Cl)c(Nc4ccccc4S(=O)(=O)C(C)C)n3)cc2C)CC1` [compound 819, (E)-1-(3-(4-(2-(4-(4-((5-chloro-4-((2-(isopropylsulfonyl)phenyl)amino)pyrimidin-2-yl)amino)-5-isopropoxy-2-methylphenyl)piperidin-1-yl)-2-oxoethoxy)-3,5-dimethoxyphenyl)acryloyl)-5,6-dihydropyridin-2(1H)-one] the “819-induced EML4-ALK degradation after pre-treatment with MG132, MLN4924 or DMF” value (EML4-ALK) was “can be blocked” and the EML4-ALK degradation (EML4-ALK; immunoblot) was “concentration-dependent manner; also recorded: degrades EML4-ALK”.
